Laboratory results published in ChEMBL document CHEMBL5653615 (J Biol Chem, 2013).

Experiments:
[1] = molecular target: T1, Serine/threonine-protein kinase Nek2 (Homo sapiens) (UniProt P51955); assay: Inhibition of human NEK2 at 1.82 nM by HotSpot assay relative to control
T1 sequence (whole entry): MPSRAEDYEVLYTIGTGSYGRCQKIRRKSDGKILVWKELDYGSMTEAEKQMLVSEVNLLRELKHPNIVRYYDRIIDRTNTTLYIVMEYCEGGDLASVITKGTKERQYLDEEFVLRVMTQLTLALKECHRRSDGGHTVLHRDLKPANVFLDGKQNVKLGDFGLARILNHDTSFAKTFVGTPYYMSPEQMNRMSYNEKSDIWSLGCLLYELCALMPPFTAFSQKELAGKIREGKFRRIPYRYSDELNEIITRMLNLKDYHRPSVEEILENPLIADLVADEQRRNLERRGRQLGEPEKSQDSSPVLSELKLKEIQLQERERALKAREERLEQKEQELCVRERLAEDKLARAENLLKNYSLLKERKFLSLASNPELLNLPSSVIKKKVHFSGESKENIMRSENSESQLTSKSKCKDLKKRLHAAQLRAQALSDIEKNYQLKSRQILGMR

[2] = molecular target: Serine/threonine-protein kinase N2 (Homo sapiens) (UniProt Q16513); assay: Inhibition of human PRK2 at 1.82 nM by HotSpot assay relative to control
[3] = molecular target: Serine/threonine-protein kinase PAK 1 (Homo sapiens) (UniProt Q13153); assay: Inhibition of human PAK1 at 1.82 nM by HotSpot assay relative to control
[4] = molecular target: Calcium/calmodulin-dependent protein kinase type 1B (Homo sapiens) (UniProt Q6P2M8); assay: Inhibition of human CAMK1b at 1.82 nM by HotSpot assay relative to control
[5] = molecular target: Ribosomal protein S6 kinase alpha-3 (Homo sapiens) (UniProt P51812); assay: Inhibition of human RSK2 at 1.82 nM by HotSpot assay relative to control
[6] = molecular target: Epidermal growth factor receptor (Homo sapiens) (UniProt P00533); assay: Inhibition of human EGFR at 1.82 nM by HotSpot assay relative to control
[7] = molecular target: Vascular endothelial growth factor receptor 1 (Homo sapiens) (UniProt P17948); assay: Inhibition of human FLT1 at 1.82 nM by HotSpot assay relative to control
[8] = molecular target: CDK3/Cyclin E (Homo sapiens) (UniProt P24864+Q00526); assay: Inhibition of human CDK3/cyclin E at 1.82 nM by HotSpot assay relative to control; format: protein-complex assay
[9] = molecular target: Mitogen-activated protein kinase kinase kinase kinase 4 (Homo sapiens) (UniProt O95819); assay: Inhibition of human HGK at 18.6 nM by HotSpot assay relative to control
[10] = molecular target: Non-receptor tyrosine-protein kinase TYK2 (Homo sapiens) (UniProt P29597); assay: Inhibition of human TYK2 at 18.6 nM by HotSpot assay relative to control
[11] = molecular target: Calcium/calmodulin-dependent protein kinase kinase 1 (Homo sapiens) (UniProt Q8N5S9); assay: Inhibition of human CAMKK1 at 18.6 nM by HotSpot assay relative to control
[12] = molecular target: Calcium/calmodulin-dependent protein kinase type 1B (Homo sapiens) (UniProt Q6P2M8); assay: Inhibition of human CAMK1b at 18.6 nM by HotSpot assay relative to control
[13] = molecular target: T2, Serine/threonine-protein kinase Sgk3 (Homo sapiens) (UniProt Q96BR1); assay: Inhibition of human SGKL at 18.6 nM by HotSpot assay relative to control
T2 sequence (whole entry): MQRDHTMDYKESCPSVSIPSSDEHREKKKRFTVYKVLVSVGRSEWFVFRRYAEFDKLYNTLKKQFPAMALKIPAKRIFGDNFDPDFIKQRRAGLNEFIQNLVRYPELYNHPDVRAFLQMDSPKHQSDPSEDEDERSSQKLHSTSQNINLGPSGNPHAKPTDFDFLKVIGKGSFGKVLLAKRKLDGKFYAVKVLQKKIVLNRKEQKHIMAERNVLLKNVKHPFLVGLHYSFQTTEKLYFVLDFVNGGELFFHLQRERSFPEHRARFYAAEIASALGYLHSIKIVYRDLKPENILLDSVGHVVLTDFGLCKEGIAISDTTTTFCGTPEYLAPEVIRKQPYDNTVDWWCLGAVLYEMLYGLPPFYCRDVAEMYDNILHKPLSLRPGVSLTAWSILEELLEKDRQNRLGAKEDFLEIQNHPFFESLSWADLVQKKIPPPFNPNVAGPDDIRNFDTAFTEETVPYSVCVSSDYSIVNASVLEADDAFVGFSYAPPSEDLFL

[14] = molecular target: T3, Serine/threonine-protein kinase D1 (Homo sapiens) (UniProt Q15139); assay: Inhibition of human PRKD1 at 18.6 nM by HotSpot assay relative to control
T3 sequence (whole entry): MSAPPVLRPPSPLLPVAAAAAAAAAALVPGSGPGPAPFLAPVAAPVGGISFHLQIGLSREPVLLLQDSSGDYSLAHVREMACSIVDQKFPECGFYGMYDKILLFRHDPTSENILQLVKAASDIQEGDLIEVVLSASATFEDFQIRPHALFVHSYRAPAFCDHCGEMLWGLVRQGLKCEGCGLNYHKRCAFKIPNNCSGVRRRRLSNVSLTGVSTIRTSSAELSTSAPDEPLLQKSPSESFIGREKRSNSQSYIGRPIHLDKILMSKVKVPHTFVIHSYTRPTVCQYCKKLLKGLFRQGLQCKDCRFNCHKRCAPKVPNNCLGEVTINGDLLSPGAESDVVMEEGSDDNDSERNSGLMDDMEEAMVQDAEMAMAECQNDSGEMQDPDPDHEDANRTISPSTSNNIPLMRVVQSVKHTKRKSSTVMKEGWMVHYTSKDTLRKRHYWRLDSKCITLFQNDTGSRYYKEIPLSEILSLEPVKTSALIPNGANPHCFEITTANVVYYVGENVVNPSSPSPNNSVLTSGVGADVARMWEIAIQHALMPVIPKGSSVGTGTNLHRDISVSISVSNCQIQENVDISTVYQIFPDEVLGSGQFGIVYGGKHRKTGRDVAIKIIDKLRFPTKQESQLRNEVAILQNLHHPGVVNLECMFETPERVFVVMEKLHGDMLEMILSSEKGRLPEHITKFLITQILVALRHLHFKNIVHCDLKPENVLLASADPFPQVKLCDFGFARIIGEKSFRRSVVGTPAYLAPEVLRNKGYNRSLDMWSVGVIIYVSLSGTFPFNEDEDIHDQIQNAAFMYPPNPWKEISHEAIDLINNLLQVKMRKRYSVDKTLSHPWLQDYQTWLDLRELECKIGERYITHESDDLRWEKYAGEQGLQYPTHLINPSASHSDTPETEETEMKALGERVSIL

[15] = molecular target: Tyrosine-protein kinase Fgr (Homo sapiens) (UniProt P09769); assay: Inhibition of human FGR at 18.6 nM by HotSpot assay relative to control
Tyrosine-protein kinase Fgr (Homo sapiens), sequence (P09769 2-529 limits assumed): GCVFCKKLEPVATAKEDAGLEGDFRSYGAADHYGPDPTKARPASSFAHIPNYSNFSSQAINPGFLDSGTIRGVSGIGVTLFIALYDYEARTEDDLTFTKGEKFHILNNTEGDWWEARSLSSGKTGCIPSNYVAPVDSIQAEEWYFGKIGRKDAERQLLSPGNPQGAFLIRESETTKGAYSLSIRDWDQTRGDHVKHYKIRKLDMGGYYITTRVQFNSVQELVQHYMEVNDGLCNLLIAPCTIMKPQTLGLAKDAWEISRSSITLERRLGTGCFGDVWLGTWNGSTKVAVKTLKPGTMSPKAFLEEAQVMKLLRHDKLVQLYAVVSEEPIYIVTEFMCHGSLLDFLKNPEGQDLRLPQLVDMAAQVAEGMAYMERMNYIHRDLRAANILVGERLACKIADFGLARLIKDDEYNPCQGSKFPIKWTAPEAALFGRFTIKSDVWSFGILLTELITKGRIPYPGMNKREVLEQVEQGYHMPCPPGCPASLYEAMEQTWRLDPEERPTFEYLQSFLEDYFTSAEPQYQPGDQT

Calcium/calmodulin-dependent protein kinase type 1B (Homo sapiens), sequence (Q6P2M8 whole entry): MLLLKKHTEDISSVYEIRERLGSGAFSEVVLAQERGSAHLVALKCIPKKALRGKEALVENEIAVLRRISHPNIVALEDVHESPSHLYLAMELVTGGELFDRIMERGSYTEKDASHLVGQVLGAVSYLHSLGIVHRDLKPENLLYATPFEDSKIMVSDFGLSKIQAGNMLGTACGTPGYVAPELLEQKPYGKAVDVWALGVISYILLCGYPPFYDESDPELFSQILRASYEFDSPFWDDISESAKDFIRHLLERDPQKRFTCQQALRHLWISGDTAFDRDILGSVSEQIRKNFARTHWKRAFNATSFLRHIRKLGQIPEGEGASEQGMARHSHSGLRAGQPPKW
Serine/threonine-protein kinase N2 (Homo sapiens), sequence (Q16513 whole entry, looked up): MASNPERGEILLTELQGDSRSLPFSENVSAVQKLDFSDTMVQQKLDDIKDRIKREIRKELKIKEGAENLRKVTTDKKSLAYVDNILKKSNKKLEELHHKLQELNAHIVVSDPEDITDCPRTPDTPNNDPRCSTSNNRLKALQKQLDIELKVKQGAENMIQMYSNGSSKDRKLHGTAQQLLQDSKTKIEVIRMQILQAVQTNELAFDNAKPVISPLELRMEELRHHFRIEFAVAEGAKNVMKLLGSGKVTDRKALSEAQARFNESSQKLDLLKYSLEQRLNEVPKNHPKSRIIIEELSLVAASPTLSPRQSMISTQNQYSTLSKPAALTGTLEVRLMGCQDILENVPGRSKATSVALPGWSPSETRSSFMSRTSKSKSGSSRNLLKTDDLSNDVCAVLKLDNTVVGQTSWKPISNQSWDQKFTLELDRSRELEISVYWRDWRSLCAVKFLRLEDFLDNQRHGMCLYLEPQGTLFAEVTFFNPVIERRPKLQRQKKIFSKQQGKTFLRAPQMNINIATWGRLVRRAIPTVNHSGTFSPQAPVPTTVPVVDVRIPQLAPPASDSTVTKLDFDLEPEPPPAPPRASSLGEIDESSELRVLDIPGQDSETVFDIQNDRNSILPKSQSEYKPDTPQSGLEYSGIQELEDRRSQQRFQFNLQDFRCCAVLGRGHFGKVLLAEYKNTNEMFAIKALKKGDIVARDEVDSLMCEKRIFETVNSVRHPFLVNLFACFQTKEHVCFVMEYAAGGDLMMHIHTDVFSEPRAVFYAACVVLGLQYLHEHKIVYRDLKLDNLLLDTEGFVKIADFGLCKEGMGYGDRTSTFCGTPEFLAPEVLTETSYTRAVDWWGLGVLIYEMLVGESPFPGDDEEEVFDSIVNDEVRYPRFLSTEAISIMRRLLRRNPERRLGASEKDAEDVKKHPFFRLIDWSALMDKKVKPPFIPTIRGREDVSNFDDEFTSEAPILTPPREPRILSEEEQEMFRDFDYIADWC
Ribosomal protein S6 kinase alpha-3 (Homo sapiens), sequence (P51812 whole entry): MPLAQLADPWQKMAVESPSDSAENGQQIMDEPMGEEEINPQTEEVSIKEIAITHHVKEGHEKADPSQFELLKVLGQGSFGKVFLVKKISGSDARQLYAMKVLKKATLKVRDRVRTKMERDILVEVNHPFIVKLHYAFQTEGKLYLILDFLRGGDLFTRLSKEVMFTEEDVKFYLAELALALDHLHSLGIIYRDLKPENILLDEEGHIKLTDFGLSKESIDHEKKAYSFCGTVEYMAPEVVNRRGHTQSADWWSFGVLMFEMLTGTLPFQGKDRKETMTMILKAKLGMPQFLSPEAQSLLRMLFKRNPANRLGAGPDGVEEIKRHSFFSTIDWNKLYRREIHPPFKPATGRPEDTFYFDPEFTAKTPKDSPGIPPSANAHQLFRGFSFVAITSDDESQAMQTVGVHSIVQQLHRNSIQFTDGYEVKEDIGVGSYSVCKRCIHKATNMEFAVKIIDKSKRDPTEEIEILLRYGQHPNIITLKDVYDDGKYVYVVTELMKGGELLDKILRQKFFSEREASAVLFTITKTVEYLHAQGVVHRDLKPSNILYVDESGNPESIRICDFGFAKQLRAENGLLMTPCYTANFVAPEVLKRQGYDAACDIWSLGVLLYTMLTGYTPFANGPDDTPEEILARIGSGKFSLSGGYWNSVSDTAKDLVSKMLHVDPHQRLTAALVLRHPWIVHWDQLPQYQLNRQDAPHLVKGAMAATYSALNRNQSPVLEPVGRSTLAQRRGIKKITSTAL
Calcium/calmodulin-dependent protein kinase kinase 1 (Homo sapiens), sequence (Q8N5S9 whole entry, looked up): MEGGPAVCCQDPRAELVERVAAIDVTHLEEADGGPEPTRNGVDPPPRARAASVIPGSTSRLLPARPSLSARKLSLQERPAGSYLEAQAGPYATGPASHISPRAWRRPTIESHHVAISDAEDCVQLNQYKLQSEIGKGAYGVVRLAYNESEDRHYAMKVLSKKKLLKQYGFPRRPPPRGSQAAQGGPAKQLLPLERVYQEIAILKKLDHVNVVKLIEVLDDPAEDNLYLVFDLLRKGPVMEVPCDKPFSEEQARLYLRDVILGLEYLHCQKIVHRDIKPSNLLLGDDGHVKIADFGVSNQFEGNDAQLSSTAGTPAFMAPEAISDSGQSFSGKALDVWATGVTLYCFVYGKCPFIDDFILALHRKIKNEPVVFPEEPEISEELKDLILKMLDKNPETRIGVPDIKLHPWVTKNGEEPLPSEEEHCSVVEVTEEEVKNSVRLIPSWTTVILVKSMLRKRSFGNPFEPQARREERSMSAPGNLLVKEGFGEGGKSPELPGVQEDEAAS
Vascular endothelial growth factor receptor 1 (Homo sapiens), sequence (P17948 whole entry): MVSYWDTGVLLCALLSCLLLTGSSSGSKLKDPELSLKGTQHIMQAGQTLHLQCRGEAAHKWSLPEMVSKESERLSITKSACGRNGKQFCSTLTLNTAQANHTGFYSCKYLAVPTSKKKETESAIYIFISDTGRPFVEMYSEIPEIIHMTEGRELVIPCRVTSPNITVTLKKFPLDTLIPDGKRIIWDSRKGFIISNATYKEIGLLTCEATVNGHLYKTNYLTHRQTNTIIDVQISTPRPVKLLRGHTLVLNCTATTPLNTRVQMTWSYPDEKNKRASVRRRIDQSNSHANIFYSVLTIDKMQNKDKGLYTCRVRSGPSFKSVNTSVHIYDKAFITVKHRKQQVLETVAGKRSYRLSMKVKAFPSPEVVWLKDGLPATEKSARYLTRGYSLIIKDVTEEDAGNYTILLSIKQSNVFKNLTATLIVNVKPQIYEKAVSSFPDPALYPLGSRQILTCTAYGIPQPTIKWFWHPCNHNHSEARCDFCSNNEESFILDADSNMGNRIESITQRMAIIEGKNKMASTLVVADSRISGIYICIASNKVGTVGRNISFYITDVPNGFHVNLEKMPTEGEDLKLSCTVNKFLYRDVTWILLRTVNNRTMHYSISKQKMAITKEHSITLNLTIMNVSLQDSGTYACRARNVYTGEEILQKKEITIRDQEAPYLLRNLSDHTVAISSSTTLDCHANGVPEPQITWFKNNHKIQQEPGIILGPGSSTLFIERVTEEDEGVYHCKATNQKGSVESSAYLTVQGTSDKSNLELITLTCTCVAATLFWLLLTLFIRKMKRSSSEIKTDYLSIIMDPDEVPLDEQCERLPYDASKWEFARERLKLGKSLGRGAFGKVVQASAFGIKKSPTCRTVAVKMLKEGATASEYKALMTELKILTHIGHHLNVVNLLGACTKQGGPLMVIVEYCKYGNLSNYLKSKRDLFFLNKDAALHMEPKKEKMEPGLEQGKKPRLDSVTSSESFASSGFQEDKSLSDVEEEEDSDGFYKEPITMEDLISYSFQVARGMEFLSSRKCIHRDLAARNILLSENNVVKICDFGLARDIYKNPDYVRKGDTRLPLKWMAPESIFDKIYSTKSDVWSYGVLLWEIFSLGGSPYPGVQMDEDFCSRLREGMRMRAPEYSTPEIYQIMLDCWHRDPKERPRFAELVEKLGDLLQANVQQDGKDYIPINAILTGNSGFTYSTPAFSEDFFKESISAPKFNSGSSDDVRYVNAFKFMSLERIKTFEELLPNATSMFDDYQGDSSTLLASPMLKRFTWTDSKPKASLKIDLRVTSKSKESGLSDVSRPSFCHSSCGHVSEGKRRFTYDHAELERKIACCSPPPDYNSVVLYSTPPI
Serine/threonine-protein kinase PAK 1 (Homo sapiens), sequence (Q13153 whole entry): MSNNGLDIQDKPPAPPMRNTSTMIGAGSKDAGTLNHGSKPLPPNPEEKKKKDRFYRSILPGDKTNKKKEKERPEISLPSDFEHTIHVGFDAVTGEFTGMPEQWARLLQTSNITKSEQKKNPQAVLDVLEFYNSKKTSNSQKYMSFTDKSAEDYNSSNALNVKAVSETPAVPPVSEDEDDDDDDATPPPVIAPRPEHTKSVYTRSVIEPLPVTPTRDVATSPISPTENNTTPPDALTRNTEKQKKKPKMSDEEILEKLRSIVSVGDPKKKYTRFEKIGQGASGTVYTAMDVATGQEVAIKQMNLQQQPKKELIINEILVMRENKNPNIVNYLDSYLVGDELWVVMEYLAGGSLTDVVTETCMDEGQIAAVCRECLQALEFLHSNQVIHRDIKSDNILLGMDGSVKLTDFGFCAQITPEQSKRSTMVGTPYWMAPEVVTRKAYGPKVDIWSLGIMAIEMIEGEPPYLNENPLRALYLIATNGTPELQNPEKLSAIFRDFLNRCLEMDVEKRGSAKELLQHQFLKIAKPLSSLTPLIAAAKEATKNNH

SMILES: C[C@@]1(C(=O)Nc2ccc(F)nc2)CCCN1c1nc(Nc2cc(C3CC3)n[nH]2)c2cccn2n1
- inhibition [1]: 0.74%
- inhibition [2]: -0.34%
- inhibition [3]: 1.83%
- inhibition [4]: -2.9%
- inhibition [5]: 2.83%
- inhibition [6]: -6.78%
- inhibition [7]: -4.89%
- inhibition [8]: 0.42%

SMILES: C[C@]1(O)C[C@@H](c2nc(-c3ccc4ccc(-c5ccccc5)nc4c3)c3c(N)nccn32)C1
- inhibition [9]: -9.59%
- inhibition [10]: -4.07%
- inhibition [11]: 5.54%
- inhibition [12]: -4.62%
- inhibition [13]: 0.11%
- inhibition [14]: -2.06%
- inhibition [15]: -9.34%
